# In patent publication US11524945B2, “Compounds for treating ILK-mediated diseases” (The Cleveland Clinic Foundation, priority 2018, dated 2022):
# How the values were obtained:
# [1] = Metabolic stability in rat liver microsomes; type: in vitro ADME; details: for Remaining Percentage (%): Rat
# [2] = Stability in human plasma; type: in vitro ADME
# [3] = target: CYP 2E1 (Homo sapiens (Human), UniProt P05181); assay: CYP inhibition in human liver microsomes, 2E1; type: in vitro ADME
# [4] = Protein binding in mouse plasma; type: in vitro ADME
# [5] = target: ILK-PINCH-Parvin (IPP) complex (Homo sapiens (Human), UniProt Q13418); assay: IPP-mediated actin bundling assay; type: biochemical; details: FIG. 4
# Excerpt: Next, we set out to obtain in vitro evidence of Csbl-1. […] Mutation of L207 into bulky Trp in ILK abolished the MgATP binding to ILK and impaired the formation and morphology of actin bundles (Vaynberg et al., 2018). Using the same actin bundling assay, we examined the effect of Csbl-1 on the IPP-mediated actin bundling. […] In general, more bundles with smaller sizes were observed as a result of Csbl-1 interference. Csbl-1 would knock out MgATP at the ILK site and increase the local concentration of Mg^2+, which may impact the actin bundling process (Tang and Janmey, 1996, Vaynberg et al., 2018).
# [6] = Stability in PBS at pH 7.4; type: physicochemical
# [7] = target: EGFR (Homo sapiens (Human), UniProt P00533); assay: EGFR binding affinity, EnSpire fluorescence intensity; details: same experimental conditions as ILK
# [8] = Solubility in PBS at pH 7.4; type: physicochemical; details: aqueous buffer
# [9] = target: CYP 2B6 (Homo sapiens (Human), UniProt P20813); assay: CYP inhibition in human liver microsomes, 2B6; type: in vitro ADME
# [10] = target: CYP 1A2 (Homo sapiens (Human), UniProt P05177); assay: CYP inhibition in human liver microsomes, 1A2; type: in vitro ADME
# [11] = target: CYP 2D6 (Homo sapiens (Human), UniProt P10635); assay: biochemical; type: in vitro ADME; details: Human Liver Microsomes
# [12] = target: CYP 2A6 (Homo sapiens (Human), UniProt P11509); assay: CYP inhibition in human liver microsomes, 2A6; type: in vitro ADME
# Sequence of CYP 2A6 (P11509 whole entry): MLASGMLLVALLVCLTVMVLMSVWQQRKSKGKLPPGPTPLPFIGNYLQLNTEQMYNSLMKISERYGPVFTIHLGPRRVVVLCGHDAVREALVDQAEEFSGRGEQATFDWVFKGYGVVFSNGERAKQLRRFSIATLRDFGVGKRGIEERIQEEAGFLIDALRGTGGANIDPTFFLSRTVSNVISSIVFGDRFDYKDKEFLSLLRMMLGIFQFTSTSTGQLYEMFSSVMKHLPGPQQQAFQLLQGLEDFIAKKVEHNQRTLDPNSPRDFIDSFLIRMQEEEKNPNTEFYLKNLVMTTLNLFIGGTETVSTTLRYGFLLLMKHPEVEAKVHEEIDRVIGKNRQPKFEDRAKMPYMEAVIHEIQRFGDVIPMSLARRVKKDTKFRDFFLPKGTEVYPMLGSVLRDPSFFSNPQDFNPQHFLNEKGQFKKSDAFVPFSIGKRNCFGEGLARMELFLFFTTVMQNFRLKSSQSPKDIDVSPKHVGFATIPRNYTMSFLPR
# Sequence of CYP 1A2 (P05177 whole entry): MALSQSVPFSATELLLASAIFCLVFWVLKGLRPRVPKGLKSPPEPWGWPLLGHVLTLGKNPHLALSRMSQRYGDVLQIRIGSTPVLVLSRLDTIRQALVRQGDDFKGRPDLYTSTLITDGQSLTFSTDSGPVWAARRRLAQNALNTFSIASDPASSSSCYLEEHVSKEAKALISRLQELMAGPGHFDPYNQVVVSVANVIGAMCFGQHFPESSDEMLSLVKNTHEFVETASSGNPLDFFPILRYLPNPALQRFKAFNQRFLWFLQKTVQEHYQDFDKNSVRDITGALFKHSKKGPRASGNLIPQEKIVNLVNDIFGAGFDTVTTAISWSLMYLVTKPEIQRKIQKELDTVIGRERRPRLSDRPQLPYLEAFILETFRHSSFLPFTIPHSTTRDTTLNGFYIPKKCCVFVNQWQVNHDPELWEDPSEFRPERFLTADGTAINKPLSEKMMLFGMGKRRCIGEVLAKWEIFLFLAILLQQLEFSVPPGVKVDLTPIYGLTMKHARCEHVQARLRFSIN
# Sequence of CYP 2B6 (P20813 whole entry): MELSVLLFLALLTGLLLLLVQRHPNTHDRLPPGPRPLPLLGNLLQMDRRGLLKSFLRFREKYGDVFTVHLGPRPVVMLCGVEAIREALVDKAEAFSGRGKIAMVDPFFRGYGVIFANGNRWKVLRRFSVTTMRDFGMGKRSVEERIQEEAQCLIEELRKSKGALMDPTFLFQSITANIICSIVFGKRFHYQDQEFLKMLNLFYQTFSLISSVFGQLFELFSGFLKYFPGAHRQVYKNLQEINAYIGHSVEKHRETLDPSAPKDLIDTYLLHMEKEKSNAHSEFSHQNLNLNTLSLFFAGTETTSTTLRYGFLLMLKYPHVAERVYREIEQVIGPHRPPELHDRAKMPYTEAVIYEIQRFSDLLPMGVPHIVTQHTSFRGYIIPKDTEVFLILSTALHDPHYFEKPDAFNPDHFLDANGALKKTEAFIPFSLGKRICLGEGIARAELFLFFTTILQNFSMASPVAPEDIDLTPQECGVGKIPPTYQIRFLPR
# Sequence of CYP 2D6 (P10635 whole entry): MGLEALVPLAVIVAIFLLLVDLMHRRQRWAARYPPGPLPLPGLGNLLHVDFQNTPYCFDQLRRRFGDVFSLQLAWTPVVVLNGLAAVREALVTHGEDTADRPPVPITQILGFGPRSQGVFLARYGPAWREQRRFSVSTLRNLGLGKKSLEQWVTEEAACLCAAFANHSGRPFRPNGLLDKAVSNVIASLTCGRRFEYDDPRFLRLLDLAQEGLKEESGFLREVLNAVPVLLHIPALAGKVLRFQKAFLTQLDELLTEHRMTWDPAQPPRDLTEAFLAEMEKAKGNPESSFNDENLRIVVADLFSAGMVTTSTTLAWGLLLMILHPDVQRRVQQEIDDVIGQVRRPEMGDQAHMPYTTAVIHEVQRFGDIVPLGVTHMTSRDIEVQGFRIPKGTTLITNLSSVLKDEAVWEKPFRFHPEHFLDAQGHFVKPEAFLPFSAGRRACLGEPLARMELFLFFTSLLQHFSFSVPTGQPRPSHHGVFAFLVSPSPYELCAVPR
# Sequence of EGFR (P00533 25-1210): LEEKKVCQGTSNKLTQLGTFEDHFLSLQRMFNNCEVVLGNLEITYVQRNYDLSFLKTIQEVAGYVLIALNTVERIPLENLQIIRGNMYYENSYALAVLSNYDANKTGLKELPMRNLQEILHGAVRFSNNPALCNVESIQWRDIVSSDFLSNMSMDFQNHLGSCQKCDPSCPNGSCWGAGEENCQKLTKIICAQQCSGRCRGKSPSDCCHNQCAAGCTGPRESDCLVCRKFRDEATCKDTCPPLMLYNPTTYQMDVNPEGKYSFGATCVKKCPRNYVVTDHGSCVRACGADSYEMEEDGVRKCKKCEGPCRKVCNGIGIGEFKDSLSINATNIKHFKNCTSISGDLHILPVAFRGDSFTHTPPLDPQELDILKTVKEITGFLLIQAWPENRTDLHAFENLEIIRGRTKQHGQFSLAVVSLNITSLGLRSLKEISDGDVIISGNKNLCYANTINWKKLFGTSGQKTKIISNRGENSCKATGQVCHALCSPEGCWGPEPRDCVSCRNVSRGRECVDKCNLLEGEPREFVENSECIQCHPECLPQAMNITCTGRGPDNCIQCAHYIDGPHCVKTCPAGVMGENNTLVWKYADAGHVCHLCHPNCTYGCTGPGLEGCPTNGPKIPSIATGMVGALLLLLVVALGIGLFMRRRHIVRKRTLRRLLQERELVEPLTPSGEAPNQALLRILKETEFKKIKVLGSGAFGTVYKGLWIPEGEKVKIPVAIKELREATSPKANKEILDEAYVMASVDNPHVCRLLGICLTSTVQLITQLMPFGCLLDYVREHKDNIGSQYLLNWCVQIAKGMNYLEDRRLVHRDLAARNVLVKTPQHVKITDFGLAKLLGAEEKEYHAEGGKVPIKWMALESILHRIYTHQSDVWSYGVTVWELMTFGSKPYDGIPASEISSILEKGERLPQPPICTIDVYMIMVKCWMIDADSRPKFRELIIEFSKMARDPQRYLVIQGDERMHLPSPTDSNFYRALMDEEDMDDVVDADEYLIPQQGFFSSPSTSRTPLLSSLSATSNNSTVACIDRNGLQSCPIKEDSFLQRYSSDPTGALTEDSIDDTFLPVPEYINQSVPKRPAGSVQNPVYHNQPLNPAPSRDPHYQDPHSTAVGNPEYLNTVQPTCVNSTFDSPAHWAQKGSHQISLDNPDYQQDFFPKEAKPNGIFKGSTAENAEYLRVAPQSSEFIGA
# Sequence of ILK-PINCH-Parvin (IPP) complex (Q13418 whole entry): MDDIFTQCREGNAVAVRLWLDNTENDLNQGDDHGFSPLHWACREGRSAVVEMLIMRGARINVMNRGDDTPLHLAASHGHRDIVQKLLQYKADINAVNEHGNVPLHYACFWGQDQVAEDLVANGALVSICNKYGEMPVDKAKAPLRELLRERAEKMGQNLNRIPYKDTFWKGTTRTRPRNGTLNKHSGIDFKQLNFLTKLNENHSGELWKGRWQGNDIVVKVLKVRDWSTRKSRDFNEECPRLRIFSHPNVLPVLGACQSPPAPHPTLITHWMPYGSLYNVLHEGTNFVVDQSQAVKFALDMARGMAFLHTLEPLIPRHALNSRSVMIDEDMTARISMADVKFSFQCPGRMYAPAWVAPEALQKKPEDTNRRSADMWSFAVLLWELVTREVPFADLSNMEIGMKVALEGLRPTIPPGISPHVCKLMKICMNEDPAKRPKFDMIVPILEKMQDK
# Sequence of ILK-PINCH-Parvin (IPP) complex (P48059 whole entry partner): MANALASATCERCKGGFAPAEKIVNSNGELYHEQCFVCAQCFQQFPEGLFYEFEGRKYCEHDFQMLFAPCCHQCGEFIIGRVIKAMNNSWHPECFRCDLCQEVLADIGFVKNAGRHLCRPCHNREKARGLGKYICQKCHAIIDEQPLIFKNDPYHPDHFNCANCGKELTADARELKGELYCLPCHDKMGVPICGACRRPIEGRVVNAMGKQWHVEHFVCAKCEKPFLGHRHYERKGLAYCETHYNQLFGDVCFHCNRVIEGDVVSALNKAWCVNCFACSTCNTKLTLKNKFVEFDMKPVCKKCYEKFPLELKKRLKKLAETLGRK
# Sequence of ILK-PINCH-Parvin (IPP) complex (Q9NVD7 whole entry partner): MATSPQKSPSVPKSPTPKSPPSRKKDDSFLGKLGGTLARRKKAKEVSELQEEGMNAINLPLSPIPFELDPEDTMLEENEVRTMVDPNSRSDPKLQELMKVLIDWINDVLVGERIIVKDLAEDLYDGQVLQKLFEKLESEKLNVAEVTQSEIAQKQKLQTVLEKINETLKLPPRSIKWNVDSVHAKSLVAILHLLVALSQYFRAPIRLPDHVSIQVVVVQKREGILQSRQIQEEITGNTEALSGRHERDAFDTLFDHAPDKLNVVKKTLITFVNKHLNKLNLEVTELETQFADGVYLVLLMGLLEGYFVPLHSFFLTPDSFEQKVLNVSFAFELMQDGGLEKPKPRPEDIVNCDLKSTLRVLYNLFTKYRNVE
# Sequence of CYP 2E1 (P05181 whole entry): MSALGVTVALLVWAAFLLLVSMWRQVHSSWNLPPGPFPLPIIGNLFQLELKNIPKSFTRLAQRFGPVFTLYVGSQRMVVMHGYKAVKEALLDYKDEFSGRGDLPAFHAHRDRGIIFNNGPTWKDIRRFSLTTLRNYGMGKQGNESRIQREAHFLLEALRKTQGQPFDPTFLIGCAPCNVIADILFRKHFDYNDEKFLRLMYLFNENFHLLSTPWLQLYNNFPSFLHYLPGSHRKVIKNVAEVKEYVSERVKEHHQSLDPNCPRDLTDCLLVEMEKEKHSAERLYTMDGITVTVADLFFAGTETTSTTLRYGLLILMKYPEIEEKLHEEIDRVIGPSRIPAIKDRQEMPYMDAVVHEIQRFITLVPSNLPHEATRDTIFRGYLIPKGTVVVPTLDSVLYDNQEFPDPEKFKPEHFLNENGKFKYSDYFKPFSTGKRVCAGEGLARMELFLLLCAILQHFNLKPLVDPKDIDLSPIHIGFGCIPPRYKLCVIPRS
compound,measurement,setting,value
C#Cc1cc(Nc2ncnc3cc(OCCOC)ccc23)cc(OCCOCC)c1 [Compound 1],half-life,[1]; Rat liver microsomes,16 min
same,microsomal CLint,"[1]; Rat liver microsomes, read-out: CLint (μL/min/mg protein)",86.6 µL/min/mg
same,CLint scaled,"[1]; Rat liver microsomes, read-out: Scaled-up CLint",155 mL/min/kg
same,Remaining Percentage (%),"[1]; With NADPH, 0 min",100.00%
same,Remaining Percentage (%),"[1]; With NADPH, 15 min",45.00%
same,Remaining Percentage (%),"[1]; With NADPH, 30 min",21.08%
same,Remaining Percentage (%),"[1]; With NADPH, 45 min",11.69%
same,Remaining Percentage (%),"[1]; With NADPH, 60 min",7.65%
same,Remaining Percentage (%),"[1]; Without NADPH, 0 min",100.00%
same,Remaining Percentage (%),"[1]; Without NADPH, 15 min",95.03%
same,Remaining Percentage (%),"[1]; Without NADPH, 30 min",90.68%
same,Remaining Percentage (%),"[1]; Without NADPH, 45 min",91.30%
same,Remaining Percentage (%),"[1]; Without NADPH, 60 min",102.48%
same,Remaining Percentage (%),[2]; 0 min,100.00%
same,Remaining Percentage (%),[2]; 15 min,93.79%
same,Remaining Percentage (%),[2]; 30 min,93.79%
same,Remaining Percentage (%),[2]; 45 min,90.52%
same,Remaining Percentage (%),[2]; 60 min,90.20%
same,Remaining Percentage (%),[2]; 120 min,88.56%
same,IC50,[3],> 50 µM
same,recovery,[4],110%
same,fraction unbound,[4]; read-out: % Bound,0.01
same,effect on IPP-induced actin bundles,[5],substantial change of IPP-induced actin bundles
same,Remaining Percentage (%),"[6]; PBS pH 7.4, 0 min",100.00%
same,Remaining Percentage (%),"[6]; PBS pH 7.4, 30 min",102.02%
same,Remaining Percentage (%),"[6]; PBS pH 7.4, 60 min",105.41%
same,Remaining Percentage (%),"[6]; PBS pH 7.4, 120 min",103.04%
same,Remaining Percentage (%),"[6]; PBS pH 7.4, 180 min",104.93%
same,Remaining Percentage (%),"[6]; PBS pH 7.4, 240 min",99.54%
same,KD to EGFR,[7],too weak to be accurately determined
same,solubility,[8],7.96 µM
same,IC50,[9],> 50 µM
same,IC50,[10],33.3 µM
same,IC50,[11],27.6 µM
same,IC50,[12],> 50 µM
